Experimental data from article PMC7316778 (Nature Communications, 2020).
Values joined by “and” are separate entries in the source; they are usually repeats but may differ in a detail not shown here. Equal values may be shown once. Read-outs that look alike come from different tables or passages of the source.

Columns and labels:
CDKL5 = molecular target: T1, CDKL5 (Homo sapiens, UniProt O76039); experiment: SelectScreen kinase assay
T1 sequence (O76039 1-960): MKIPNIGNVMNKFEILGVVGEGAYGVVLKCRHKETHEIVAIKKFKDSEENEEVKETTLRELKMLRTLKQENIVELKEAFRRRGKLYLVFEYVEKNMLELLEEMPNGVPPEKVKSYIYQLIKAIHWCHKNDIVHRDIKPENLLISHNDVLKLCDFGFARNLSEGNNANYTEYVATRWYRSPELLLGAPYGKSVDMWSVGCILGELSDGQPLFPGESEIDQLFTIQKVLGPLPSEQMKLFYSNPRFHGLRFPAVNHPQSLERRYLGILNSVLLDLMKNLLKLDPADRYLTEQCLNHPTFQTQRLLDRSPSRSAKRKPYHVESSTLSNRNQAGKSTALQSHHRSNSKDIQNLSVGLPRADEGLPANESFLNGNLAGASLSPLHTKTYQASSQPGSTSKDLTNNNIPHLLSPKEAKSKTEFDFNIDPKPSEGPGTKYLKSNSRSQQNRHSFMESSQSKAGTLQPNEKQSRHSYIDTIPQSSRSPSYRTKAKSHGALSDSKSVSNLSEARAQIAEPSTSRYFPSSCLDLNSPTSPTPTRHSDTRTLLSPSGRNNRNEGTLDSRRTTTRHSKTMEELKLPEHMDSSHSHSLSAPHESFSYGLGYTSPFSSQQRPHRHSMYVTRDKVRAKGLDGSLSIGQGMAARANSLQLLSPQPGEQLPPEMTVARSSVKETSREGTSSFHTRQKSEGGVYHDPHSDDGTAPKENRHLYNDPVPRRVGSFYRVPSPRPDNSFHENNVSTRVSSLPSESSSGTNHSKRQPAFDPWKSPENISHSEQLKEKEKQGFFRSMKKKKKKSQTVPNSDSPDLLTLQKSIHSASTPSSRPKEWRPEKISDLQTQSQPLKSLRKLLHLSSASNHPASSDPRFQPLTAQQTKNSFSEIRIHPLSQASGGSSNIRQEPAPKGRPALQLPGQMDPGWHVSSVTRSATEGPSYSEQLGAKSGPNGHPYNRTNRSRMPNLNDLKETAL
Description: (§1) Selectivity profiling assays were performed by the Invitrogen SelectScreen™ Services. […] The concentration of ATP was selected to be equal to the KM, unless indicated otherwise.

EPHA7 = EPHA7 (Homo sapiens, UniProt Q15375); experiment: SelectScreen kinase assay; details: 1 h, 1 μM WEL028, 1 h preincubation
Description: as §1

FRK (PTK5) = FRK (PTK5) (Homo sapiens, UniProt P42685); experiment: SelectScreen kinase assay; details: for Inhibition at 1 µM (%): FRK (PTK5), ZLYTE, ATP Km app
Description: as §1

KSR2 = molecular target: T2, KSR2 (Homo sapiens, UniProt Q6VAB6); experiment: SelectScreen kinase assay; details: for Inhibition at 1 µM (%): KSR2, ZLYTE, ATP Km app
T2 sequence (Q6VAB6 1-950): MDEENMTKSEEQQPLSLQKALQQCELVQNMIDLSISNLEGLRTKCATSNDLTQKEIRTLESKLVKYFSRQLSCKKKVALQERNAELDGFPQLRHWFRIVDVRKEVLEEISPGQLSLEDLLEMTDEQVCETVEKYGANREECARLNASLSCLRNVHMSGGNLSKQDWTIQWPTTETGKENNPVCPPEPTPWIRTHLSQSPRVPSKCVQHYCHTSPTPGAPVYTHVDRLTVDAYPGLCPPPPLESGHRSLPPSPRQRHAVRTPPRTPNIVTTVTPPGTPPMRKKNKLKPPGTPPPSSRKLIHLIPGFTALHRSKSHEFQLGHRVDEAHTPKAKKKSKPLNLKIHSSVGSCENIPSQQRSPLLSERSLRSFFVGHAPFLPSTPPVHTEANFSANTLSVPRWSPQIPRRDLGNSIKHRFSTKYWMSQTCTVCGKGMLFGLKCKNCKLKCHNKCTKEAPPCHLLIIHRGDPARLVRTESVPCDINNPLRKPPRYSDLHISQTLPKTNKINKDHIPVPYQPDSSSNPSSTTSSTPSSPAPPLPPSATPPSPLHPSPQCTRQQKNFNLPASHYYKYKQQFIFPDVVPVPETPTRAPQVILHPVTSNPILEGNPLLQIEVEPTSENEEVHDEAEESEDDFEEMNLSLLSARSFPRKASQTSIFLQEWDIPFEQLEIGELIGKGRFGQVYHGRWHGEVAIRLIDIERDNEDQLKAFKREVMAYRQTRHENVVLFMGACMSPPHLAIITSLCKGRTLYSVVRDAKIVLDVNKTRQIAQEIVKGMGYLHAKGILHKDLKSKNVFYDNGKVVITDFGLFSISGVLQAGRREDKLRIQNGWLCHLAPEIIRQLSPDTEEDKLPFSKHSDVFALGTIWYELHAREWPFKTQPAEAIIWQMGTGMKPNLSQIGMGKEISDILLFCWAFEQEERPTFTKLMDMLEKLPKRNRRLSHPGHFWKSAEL
Description: as §1

PAK1 = PAK1 (Homo sapiens, UniProt Q13153); experiment: SelectScreen kinase assay
Description: as §1

PHKG1 = PHKG1 (Homo sapiens, UniProt Q16816); experiment: SelectScreen kinase assay; details: 1 h, 1 μM WEL028, 1 h preincubation
Description: as §1

PI4KA (PI4K alpha) = PI4KA (PI4K alpha) (Homo sapiens, UniProt P42356); experiment: SelectScreen kinase assay
Chain of PI4KA (PI4K alpha) (P42356 whole entry): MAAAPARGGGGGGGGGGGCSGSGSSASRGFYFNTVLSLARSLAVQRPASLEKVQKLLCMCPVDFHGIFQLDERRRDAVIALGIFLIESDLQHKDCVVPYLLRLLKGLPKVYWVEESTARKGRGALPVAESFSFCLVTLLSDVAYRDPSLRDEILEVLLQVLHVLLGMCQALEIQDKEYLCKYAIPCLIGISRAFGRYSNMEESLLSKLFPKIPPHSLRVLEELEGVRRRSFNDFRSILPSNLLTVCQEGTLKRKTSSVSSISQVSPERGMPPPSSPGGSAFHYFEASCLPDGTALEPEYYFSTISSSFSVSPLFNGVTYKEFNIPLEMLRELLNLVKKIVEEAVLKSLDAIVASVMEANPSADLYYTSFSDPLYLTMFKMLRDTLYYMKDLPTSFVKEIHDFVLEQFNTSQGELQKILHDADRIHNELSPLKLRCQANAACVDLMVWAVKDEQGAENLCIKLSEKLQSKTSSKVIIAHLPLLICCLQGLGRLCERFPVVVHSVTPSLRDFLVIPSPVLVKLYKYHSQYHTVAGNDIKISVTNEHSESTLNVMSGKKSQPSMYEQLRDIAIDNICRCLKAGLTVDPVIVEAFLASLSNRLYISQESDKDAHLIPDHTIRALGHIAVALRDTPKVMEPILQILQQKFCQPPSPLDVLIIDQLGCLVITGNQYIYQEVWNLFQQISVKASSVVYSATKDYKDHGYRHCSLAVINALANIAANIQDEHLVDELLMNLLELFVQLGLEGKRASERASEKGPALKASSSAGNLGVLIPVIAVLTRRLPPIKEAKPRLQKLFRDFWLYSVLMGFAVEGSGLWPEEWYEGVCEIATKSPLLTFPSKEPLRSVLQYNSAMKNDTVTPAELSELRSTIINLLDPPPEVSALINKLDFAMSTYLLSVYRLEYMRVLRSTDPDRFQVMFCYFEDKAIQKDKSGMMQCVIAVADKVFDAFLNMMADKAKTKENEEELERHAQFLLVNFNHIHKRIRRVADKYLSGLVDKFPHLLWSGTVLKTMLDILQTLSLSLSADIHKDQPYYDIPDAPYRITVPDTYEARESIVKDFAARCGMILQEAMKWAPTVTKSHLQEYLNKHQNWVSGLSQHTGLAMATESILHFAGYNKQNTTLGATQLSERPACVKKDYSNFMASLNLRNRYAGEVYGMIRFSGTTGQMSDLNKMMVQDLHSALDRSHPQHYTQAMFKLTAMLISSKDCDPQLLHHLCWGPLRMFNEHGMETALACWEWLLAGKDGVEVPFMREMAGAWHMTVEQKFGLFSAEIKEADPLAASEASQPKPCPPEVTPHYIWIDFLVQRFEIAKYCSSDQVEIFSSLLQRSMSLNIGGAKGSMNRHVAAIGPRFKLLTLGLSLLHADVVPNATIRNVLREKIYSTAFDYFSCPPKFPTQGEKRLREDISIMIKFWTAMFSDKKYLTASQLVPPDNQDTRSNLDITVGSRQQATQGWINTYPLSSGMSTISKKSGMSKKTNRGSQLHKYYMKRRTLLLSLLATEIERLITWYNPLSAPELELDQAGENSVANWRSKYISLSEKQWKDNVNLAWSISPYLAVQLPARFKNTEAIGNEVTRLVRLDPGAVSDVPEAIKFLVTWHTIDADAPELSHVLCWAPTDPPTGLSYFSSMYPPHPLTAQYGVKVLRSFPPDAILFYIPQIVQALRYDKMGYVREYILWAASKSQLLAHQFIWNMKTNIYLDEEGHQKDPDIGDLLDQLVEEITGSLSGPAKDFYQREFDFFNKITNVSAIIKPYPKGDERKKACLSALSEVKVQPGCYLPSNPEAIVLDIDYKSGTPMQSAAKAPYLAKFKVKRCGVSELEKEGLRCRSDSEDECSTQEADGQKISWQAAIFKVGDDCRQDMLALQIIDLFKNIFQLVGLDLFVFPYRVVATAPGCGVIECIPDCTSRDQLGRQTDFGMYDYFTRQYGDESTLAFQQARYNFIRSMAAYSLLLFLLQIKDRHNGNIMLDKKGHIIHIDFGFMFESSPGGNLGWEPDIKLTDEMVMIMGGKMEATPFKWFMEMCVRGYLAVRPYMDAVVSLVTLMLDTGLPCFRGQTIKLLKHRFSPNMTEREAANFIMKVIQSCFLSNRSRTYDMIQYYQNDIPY
Description: as §1

PLK2 = PLK2 (Homo sapiens, UniProt Q9NYY3); experiment: SelectScreen kinase assay
Chain of PLK2 (Q9NYY3 whole entry): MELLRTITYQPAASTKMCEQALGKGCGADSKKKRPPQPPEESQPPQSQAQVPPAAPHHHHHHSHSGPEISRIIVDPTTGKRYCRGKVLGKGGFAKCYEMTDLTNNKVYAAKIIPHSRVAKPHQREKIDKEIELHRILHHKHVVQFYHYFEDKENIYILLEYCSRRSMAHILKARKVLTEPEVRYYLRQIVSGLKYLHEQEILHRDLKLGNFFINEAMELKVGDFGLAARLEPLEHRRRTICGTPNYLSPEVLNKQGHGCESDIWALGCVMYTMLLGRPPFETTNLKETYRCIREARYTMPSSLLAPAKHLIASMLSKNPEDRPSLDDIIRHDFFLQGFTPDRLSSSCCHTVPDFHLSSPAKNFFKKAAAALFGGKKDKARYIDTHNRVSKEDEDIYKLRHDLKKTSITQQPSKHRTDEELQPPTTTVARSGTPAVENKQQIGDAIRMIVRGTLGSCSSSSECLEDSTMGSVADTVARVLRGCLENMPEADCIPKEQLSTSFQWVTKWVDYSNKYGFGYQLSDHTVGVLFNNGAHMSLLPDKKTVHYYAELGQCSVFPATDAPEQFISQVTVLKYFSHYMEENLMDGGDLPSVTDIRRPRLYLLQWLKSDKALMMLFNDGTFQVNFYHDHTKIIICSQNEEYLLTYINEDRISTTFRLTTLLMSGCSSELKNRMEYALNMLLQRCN
Description: as §1

SPHK2 = SPHK2 (Homo sapiens, UniProt Q9NRA0); experiment: SelectScreen kinase assay
Description: as §1

TYK2 = TYK2 (Homo sapiens, UniProt P29597); experiment: SelectScreen kinase assay
Chain of TYK2 (P29597 whole entry): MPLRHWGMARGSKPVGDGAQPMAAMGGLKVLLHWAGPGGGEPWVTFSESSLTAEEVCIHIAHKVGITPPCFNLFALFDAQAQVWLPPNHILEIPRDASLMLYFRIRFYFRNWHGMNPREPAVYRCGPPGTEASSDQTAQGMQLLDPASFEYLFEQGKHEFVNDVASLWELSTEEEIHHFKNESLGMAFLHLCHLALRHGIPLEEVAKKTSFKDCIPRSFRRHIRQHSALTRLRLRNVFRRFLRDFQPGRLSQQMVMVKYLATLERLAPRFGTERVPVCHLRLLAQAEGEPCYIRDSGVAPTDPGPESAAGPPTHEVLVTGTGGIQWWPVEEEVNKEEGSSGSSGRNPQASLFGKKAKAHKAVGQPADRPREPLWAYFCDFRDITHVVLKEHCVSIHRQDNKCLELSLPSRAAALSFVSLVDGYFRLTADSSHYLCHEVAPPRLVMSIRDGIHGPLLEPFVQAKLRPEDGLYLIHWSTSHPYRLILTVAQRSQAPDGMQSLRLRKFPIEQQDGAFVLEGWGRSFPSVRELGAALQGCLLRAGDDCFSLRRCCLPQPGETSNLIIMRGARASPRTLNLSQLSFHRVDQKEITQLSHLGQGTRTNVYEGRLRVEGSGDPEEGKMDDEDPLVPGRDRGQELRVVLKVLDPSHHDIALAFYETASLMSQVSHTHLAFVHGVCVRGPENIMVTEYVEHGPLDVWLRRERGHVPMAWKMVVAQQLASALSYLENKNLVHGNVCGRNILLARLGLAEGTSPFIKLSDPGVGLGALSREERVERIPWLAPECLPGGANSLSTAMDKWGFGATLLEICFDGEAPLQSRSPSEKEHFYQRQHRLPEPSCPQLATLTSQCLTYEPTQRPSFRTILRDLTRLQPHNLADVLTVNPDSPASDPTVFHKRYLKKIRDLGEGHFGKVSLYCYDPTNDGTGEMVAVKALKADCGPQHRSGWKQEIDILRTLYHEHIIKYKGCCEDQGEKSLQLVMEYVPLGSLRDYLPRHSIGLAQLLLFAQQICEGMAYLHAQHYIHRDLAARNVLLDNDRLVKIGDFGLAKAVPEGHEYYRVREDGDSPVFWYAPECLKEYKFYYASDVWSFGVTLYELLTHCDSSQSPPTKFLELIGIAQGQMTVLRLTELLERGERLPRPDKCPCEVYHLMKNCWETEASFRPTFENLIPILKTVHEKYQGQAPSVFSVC
Description: as §1

YES1 = YES1 (Homo sapiens, UniProt P07947); experiment: SelectScreen kinase assay
Description: as §1

FES^S700C = FES^S700C (Homo sapiens, UniProt P07332, S700C); experiment: In situ two-step labeling of transfected HEK293T cells (click chemistry); assay type: cell-based; set-up: expressed in transfected cells; host or cells: HEK293T (transient, PEI)
Chain of FES^S700C (P07332 whole entry S700C): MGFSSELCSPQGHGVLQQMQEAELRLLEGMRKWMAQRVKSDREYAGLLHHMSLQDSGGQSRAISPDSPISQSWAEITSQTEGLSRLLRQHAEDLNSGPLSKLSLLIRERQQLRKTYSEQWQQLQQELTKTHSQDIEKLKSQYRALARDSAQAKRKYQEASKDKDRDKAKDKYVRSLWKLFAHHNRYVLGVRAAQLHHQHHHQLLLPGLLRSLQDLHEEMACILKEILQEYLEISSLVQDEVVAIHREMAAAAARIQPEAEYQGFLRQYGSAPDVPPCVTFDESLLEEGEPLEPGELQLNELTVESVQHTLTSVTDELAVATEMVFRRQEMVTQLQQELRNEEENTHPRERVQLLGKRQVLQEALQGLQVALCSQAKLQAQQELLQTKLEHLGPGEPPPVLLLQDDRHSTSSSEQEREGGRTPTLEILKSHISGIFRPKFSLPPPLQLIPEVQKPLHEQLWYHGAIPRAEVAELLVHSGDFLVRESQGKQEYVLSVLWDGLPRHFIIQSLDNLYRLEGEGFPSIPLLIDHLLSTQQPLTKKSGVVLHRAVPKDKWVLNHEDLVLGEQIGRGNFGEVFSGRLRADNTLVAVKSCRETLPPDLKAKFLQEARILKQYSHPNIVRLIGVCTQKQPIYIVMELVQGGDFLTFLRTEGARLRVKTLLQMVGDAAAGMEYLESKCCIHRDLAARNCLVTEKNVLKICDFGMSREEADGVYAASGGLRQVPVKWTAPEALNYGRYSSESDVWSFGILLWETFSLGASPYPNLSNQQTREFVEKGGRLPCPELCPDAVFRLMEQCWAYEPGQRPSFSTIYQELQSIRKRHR

[1] = 1 h, 1 μM WEL028, 1 h preincubation
[2] = 1 µM, ZLYTE, ATP Km app, listed as WEL028, 1 µM

C#CCOc1ccc(Nc2ncc(Cl)c(Nc3ccccc3NC(=O)C=C)n2)c(OC)c1 [Compound 6]
inhibition at 1 µM (CDKL5; [1]): 8%
Inhibition at 1 µM (%) (CDKL5; CDKL5, 1 µM, ZLYTE, ATP Km app, listed as WEL028, 1 µM): 9%
inhibition at 1 µM (CDKL5; read-out: Inhibition at 1 µM (%), CDKL5, 1 µM, ZLYTE, ATP Km app): 7%
inhibition at 1 µM (EPHA7): 4%
inhibition at 1 µM (FRK (PTK5); [1]): 7%
Inhibition at 1 µM (%) (FRK (PTK5)): 11%
Inhibition at 1 µM (%) (FRK (PTK5); listed as WEL028, 1 µM): 4%
inhibition at 1 µM (KSR2; [1]): 1%
Inhibition at 1 µM (%) (KSR2): 2%
Inhibition at 1 µM (%) (KSR2; listed as WEL028, 1 µM): 0%
inhibition at 1 µM (PAK1; 1 h): 8%
inhibition at 1 µM (PAK1; read-out: Inhibition at 1 µM (%)): 8%
inhibition at 1 µM (PHKG1): -2%
inhibition at 1 µM (PI4KA (PI4K alpha); [1]): 7%
Inhibition at 1 µM (%) (PI4KA (PI4K alpha); PI4KA (PI4K alpha), 1 µM, Adapta, ATP 10, listed as WEL028, 1 µM): 3% and 11%
Inhibition (%) (PLK2; 1 μM WEL028, 1 h preincubation): 12%
Inhibition at 1 µM (%) (PLK2; PLK2, 1 µM, ZLYTE, ATP Km app, listed as WEL028, 1 µM): 15%
inhibition at 1 µM (PLK2; read-out: Inhibition at 1 µM (%), PLK2, 1 µM, ZLYTE, ATP Km app): 8%
Inhibition at 1 µM (%) (SPHK2; 1 µM, Adapta, ATP 10, listed as WEL028, 1 µM): 5% and 1%
inhibition at 1 µM (SPHK2; [1]): 3%
Inhibition (%) (TYK2; 1 μM WEL028, 1 h preincubation): -1%
Inhibition at 1 µM (%) (TYK2; [2]): -6% and 4%
Inhibition at 1 µM (%) (YES1; [2]): 10%
inhibition at 1 µM (YES1; [1]): 8%
inhibition at 1 µM (YES1; read-out: Inhibition at 1 µM (%), 1 µM, ZLYTE, ATP Km app): 7%
Cell permeability (FES^S700C; living HEK293T cells): cell-permeable
Concentration sufficient to fully block labeling of FES^S700C (FES^S700C; living HEK293T cells): 100 nM
IC50 (FES^S700C; transfected HEK293T cells treated with WEL028, click chemistry, n = 3, read-out: pIC50, labeling of FES^S700C in live cells (converted)): 25.1 nM
